Data set [1] is described as follows: Tolerability in studies on subjects with acromegaly. The class given is in vivo, human. The note with it: 40 mg.
Data set [2] relates to insulin-like growth factor-1 (IGF-1) level. As to the kind of experiment: Phase 2 acromegaly trials (ACROBAT Edge / Evolve): IGF-1 level. The class given is in vivo, human. The protocol:
(§1) An open label exploratory study designed to evaluate the safety, efficacy, and pharmacokinetics of Compound A (also known as paltusotine) in subjects with acromegaly that are treated with somatostatin analogue (SSA) based treatment regimens.
10 mg HMG capsule formulation. Multiple capsules were swallowed with water depending on dose specified for a given period/cohort.
Primary Outcome Measures: Change from baseline (mean of Screening values) in insulin-like growth factor-1 (IGF-1) level [Time Frame: 13 Weeks].
Primary Outcome Measures: Proportion of subjects who meet responder criteria (based on the mean of two consecutive insulin-like growth factor-1 [IGF-1] measurements ≤upper limit of normal [ULN]) (Time Frame: 13 Weeks).
(§2) Secondary Outcome Measures: 1) Change in IGF-1 levels [Time Frame: From Week 10 to Week 13]. 2) Change in growth hormone (GH) levels [Time Frame: From Week 8 to Week 13]. 3) Change in patient assessed symptoms of acromegaly [Time Frame: From Week 10 to Week 13]. Total score computed by adding each of the individual acromegaly symptom intensities (headache pain, joint pain, sweating, fatigue, weakness in legs, swelling, numbness or tingling).
(§3) The primary hypothesis was that the group would show no change in the median IGF-1 at Week 13 versus baseline.

A short description of data set [3]: Phase 1 multi-cohort single dose study, plasma pharmacokinetics in healthy subjects. The class given is in vivo, human. The protocol:
Cohort 1: To characterize performance of 10 mg tablets prepared by spray-dried dispersion (SDD) of Compound A-HCl salt.
Cohort 2: To evaluate the relative bioavailability of 10 mg SDD tablets compared to the Compound A-HCl hot melt granulation (HMG) formulation, 10 mg capsules. To determine the effect of timing of food administration on pharmacokinetics of low dose of the 10 mg SDD tablets.
Cohort 5: To determine the effect of the proton-pump inhibitor (PPI), lansoprazole, on the pharmacokinetics of a 60 mg dose of SDD tablets. To determine the effect of a low-fat meal on the pharmacokinetics of a 60 mg dose of SDD tablets.
The SDD tablets were evaluated. Up to twelve (12) healthy male and female subjects were enrolled in each cohort. Cohort 1 consisted of 4 periods: In Period 1, subjects were administered a proton-pump inhibitor (lansoprazole, 15 mg BID for 3 days (from Day-3), taken orally at least 30 min prior to a meal, once in the morning and once in the evening). On the fourth day (Day 1 of study), fasted subjects will take the last dose of lansoprazole (15 mg) 60 min prior to 20 mg Compound A (2×10 mg of the SDD tablets). In Period 2, fasted subjects were administered 20 mg Compound A (2×10 mg of the SDD tablets). In Period 3, fasted subjects were administered 20 mg Compound A (2×10 mg of the SDD tablets) with a high-fat, high-calorie meal. In Period 4, fasted subjects will take up to 80 mg Compound A (up to 8×10 mg of the SDD tablets). The actual dose was selected based on the pharmacokinetic data from Period 2.
For Period 1: In the evening before dosing (Day −1), subjects were administered their evening dose of 15 mg lansoprazole, provided an evening meal at least 30 min after administration of lansoprazole, and then were required to fast overnight (≥10 hr) on Day −1. […]
The cohort consisted of three periods. The PK of 60 mg paltusotine administered as 3×20 mg SDD tablets was assessed using the following criteria: effect of a low-fat meal on the PK of paltusotine (Period 1 and Period 3) and effect of the PPI lansoprazole on the PK of paltusotine (Period 2) as follows: […]

The subject of data set [4] is growth hormone (GH) levels. Description: Phase 2 acromegaly trials (ACROBAT Edge / Evolve): GH level. The class given is in vivo, human. As for the experimental part:
as §1, §2, §3

For another data set, the system named is carcinoid syndrome. The conditions noted are these: cited from earlier work.
Where [5] appears, read: after 13 weeks of treatment, acromegaly patients previously treated with injected SRL depots.

For the compound `Cl.N#Cc1cccc(-c2ccc3ncc(-c4cc(F)cc(F)c4)c(N4CCC(N)CC4)c3c2)c1O` [Compound A-HCl, 3-[4-(4-amino-piperidin-1-yl)-3-(3,5-difluoro-phenyl)-quinolin-6-yl]-2-hydroxy-benzonitrile monohydrochloride], in data set [1], the tolerability entry is “well tolerated”. Moreover, in data set [2] (10 and 20 mg per day, acromegaly patients previously treated with LA-SRLs), the “steady state IGF-1 change vs baseline (last LA-SRL injection)” value was “above baseline”. The “steady state IGF-1 change from baseline (last LA-SRL injection)” value in data set [2] (30/day and 40 mg/day, acromegaly patients previously treated with LA-SRLs) is “near zero”.

As for `N#Cc1cccc(-c2ccc3ncc(-c4cc(F)cc(F)c4)c(N4CCC(N)CC4)c3c2)c1O` [Compound A, 3-(4-(4-amino-piperidin-1-yl)-3-(3,5-difluoro-phenyl)-quinolin-6-yl)-2-hydroxy-benzonitrile], in data set [2] (setting [5]), the “IGF-1 levels vs baseline” value was “did not significantly change from baseline”. The IGF-1 after withdrawal result in data set [2] (within 2 weeks after withdrawal) was “Rise in IGF-1 after withdrawal”. In addition, the “reduction of exposures (Cmax and AUC)” value in data set [3] (when administered with PPI, 60 mg) was approximately 40%; in data set [3] (when administered with high-fat meal) it was more than 80%; in data set [3] (when administered with low-fat meal, 60 mg), approximately 60%. The “GH levels vs baseline” value in data set [4] (setting [5]) is “did not significantly change from baseline”. Further, the GH after withdrawal result in data set [4] (after withdrawal) is on record as “Rise in GH after withdrawal”.

As to `C[C@@H](O)[C@@H]1NC(=O)[C@H](CCCCN)NC(=O)[C@@H](Cc2c[nH]c3ccccc23)NC(=O)[C@H](Cc2ccccc2)NC(=O)[C@@H](NC(=O)[C@H](N)Cc2ccccc2)CSSC[C@@H](C(=O)N[C@H](CO)[C@@H](C)O)NC1=O` [octreotide], the “patients with carcinoid syndrome who respond” value in the data set on carcinoid syndrome was 80%.

The record behind these values is patent US20250228842A1, “USES OF A SOMATOSTATIN MODULATOR FOR THE TREATMENT OF CARCINOID SYNDROME” (Crinetics Pharmaceuticals, Inc., priority 2022, published 2025).
